Assay results taken from patent US4122184A, “Benzimidazole insecticides” (priority 1977, dated 1978).

Columns and labels:
Aphids - Apple = experiment: Field trial, stomach poison test; type: in vivo
Experimental: (§1) Leaves from the infested plant are treated with different concentrations of the test compounds, either by spraying with a DeVilbiss Special Atomizer (5004) at 10 psi or by dipping the leaves in solutions containing the compound. The leaves are then allowed to air dry.
(§2) After the leaves have dryed, they are placed in plastic petri dishes (100 × 25 mm), then the insects are counted out into each dish, five or ten insects per dish depending on the number of insects available. There are one or two replicates and usually two or three rates with each compound. Mortality results are taken at 24, 48 and 72 hours. The rating scale is 0 to 9.
(§3) Using the above methods, field trials were carried out against species of 5 orders of insects. The results, which are summarized in the following tables, give the average mortality for the particular insect with a given benzimidazole for each concentration employed. […] These tables contain all results obtained during the summer trials.

Aphids - Sour Gum = experiment: Field trial, stomach poison test; type: in vivo
Experimental: as §1, §2, §3

Aphids - Tulip Tree = experiment: Field trial, stomach poison test; type: in vivo
Experimental: as §1, §2, §3

Meadow Spittlebug = experiment: Field trial, stomach poison test; type: in vivo
Experimental: as §1, §2, §3

[1] = tested on: Southern Corn Rootworm Adults; experiment: Field trial, stomach poison test; type: in vivo; design: key: mortality rating on a 0 to 9 scale
Experimental: as §1, §2, §3

[2] = tested on: Striped Cucumber Beetle Adults; experiment: Field trial, stomach poison test; type: in vivo; design: key: mortality rating on a 0 to 9 scale
Experimental: as §1, §2, §3

[3] = tested on: Tarnished Plant Bug Adults; experiment: Field trial, stomach poison test; type: in vivo; design: key: mortality rating on a 0 to 9 scale
Experimental: as §1, §2, §3

[4] = tested on: Unidentified Green Leafhopper; experiment: Field trial, stomach poison test; type: in vivo; design: key: mortality rating on a 0 to 9 scale
Experimental: as §1, §2, §3

Squash Bug Adults = experiment: Field trial, contact poison test; type: in vivo; design: key: 0-9 rating: 0 = 0-10% mortality, 9 = 91-100% mortality
Source text: (§4) Infested plants are placed in 6 oz. prescription bottles filled with water to keep them from wilting. Cellucotton is wrapped around the plant stem and squeezed into the bottle neck to prevent the insects from drowning.
(§5) A DeVilbiss Special Atomizer (5004) is used at 10 psi to spray the test plant with different concentrations of compounds. The atomizer is held at arm's length to prevent blowing the insects off the host plant. After treating, the bottles are placed on a table covered with brown wrapping paper to catch the dead insects as they drop from the plant. The plants are spaced so the leaves or plants are not touching one another.
(§6) The results are read at 24, 48, and 72 hours when applicable. The rating scale is 0 to 9 where 0 = 0-10 percent and 9 = 91-100 percent mortality.
as §3

[5] = tested on: Red-Legged Grasshopper Adults; experiment: Field trial, contact poison test; type: in vivo
Source text: as §4, §5, §6, §3

[6] = tested on: Southern Corn Rootworm Adults; experiment: Field trial, contact poison test; type: in vivo
Source text: as §4, §5, §6, §3

Yellow Mealworm Larvae = experiment: Field trial, topical application; type: in vivo; design: key: 0 = 0-10% mortality, 9 = 91-100% mortality (0-9 scale)
Experimental: as §6
In a variation of the above test, 1 microliter of a test solution containing a predetermined number of micrograms of benzimidazole was applied directly to larvae or adult insects.
as §3

[7] = tested on: Two-Spotted Spider Mite (2-SSM); experiment: Miticide test, acute mortality, foliar spray; type: in vivo, Tetranychus urticae
Experimental: Each 5 mg. sample of technical compound preweighed at Greenfield was dissolved in 2.5 ml. of acetone and diluted with 247.5 ml. of water containing a combination of […]
(§7) The treated cuttings were stored in the greenhouse for 24 hours before evaluation under a binocular disecting microscope in the laboratory. In evaluating the results of the miticide test, each treated cutting was removed from the test tube, observed for live and dead mites at 14 × magnification, and returned immediately to the test tube. A scale of 0-9 was used as before.
The test employing two-spotted spider mites was conducted in similar fashion except that the mites were maintained on squash seedlings or squash cuttings.

Citrus Rust Mite (CRM) = experiment: Miticide test, acute mortality, foliar spray; type: in vivo; details: after 72 hours
Experimental: Citrus cuttings were obtained and prepared for testing within 24 hours prior to inoculation with citrus rust mites. To prepare the cuttings, terminals of branches 12 to 14 inches in length were cut from temple orange trees, immediately placed in tap water and taken into the laboratory. Uniform hardwood cuttings, 3 to 4 inches in length, were cut from the branches, all but one hardened leaf was removed from the cuttings, and the remaining leaf was wiped clean with a cotton pad soaked in 10% ethanol solution. Each cutting was immediately placed in tap water in a test tube with the closed leaf extending out of the test tube. Then, a ring of melted lanolin was applied around the petiole to prevent migration of mites from the leaf. One cutting was used for each replicate.
When the leaves were dry immediately after cleaning, citrus rust mites were transferred to the test leaves by cutting a heavily infested colony leaf (from a source colony maintained on citrus seedlings) into 20 to 22 sections (approximately 0.25 by 0.5 inches in size) and using forceps to place 1 section on each leaf cutting. As the section became desiccated the mites moved to the whole leaf and in 20 hours the sections were removed from the leaves for treatment application.
Treatments were applied within 24 hours after inoculation by removing the cuttings from the test tube and submerging the leaves in the treatment solution for 5 seconds by hand and immediately returning the cutting to the test tube. […]
as §7

Compound `CCOC(=O)n1c(C(F)(F)F)nc2c([N+](=O)[O-])cc(C(F)(F)F)cc21` [U, ethyl 4-nitro-2,6-bis(trifluoromethyl)benzimidazolecarboxylate] has an average mortality rating (Aphids - Apple; 25 ppm) of 2, an average mortality rating (Aphids - Apple; 50 ppm) of 4 and an average mortality rating (Aphids - Apple; 100 ppm) of 6. The average mortality rating (Aphids - Sour Gum; 25 ppm) was 9 (91-100 percent mortality), the average mortality rating (Aphids - Sour Gum; 50 ppm) was 7 and the average mortality rating (Aphids - Sour Gum; 100 ppm) was 9 (91-100 percent mortality). The average mortality rating (Aphids - Tulip Tree; 25 ppm) was 6, the average mortality rating (Aphids - Tulip Tree; 50 ppm) was 8 and the average mortality rating (Aphids - Tulip Tree; 100 ppm) was 9 (91-100 percent mortality). It also gave an average mortality rating (Meadow Spittlebug; 10 ppm) of 5, an average mortality rating (Meadow Spittlebug; 25 ppm) of 5 and an average mortality rating (Meadow Spittlebug; 50 ppm) of 3. The average mortality rating (Meadow Spittlebug; 100 ppm) was 0 (0-10 percent), the average mortality rating ([1]; 25 ppm) was 5 and the average mortality rating ([1]; 50 ppm) was 3. It also gave an average mortality rating ([1]; 100 ppm) of 3, an average mortality rating ([2]; 10 ppm) of 2 and an average mortality rating ([2]; 25 ppm) of 1. The average mortality rating ([2]; 50 ppm) was 4, the average mortality rating ([2]; 100 ppm) was 9 (91-100 percent mortality) and the average mortality rating ([3]; 10 ppm) was 0 (0-10 percent). For the same compound, the average mortality rating ([3]; 25 ppm) was 1, the average mortality rating ([3]; 50 ppm) was 6 and the average mortality rating ([4]; 10 ppm) was 3. The average mortality rating ([4]; 25 ppm) was 7, the average mortality rating ([4]; 50 ppm) was 9 (91-100 percent mortality) and the average mortality rating (Squash Bug Adults; 125 ppm) was 5. For the same compound, the average mortality rating (Squash Bug Adults; 250 ppm) was 5, the average mortality rating (Squash Bug Adults; 500 ppm) was 7 and the average mortality rating (Squash Bug Adults; 750 ppm) was 7. For the same compound, the average mortality rating ([5]; 25 ppm) was 9 (91-100 percent mortality), the average mortality rating ([5]; 50 ppm) was 9 (91-100 percent mortality) and the average mortality rating ([6]; 25 ppm) was 4. The average mortality rating ([6]; 50 ppm) was 9 (91-100 percent mortality), the average mortality rating ([6]; 100 ppm) was 9 (91-100 percent mortality) and the average mortality rating (Yellow Mealworm Larvae; 0.03 μg/μl) was 4. The average mortality rating (Yellow Mealworm Larvae; 0.07 μg/μl) was 4, the average mortality rating (Yellow Mealworm Larvae; 0.15 μg/μl) was 6 and the acute mortality rating ([7]; 6.25 ppm) was 1. It also gave an acute mortality rating ([7]; 12.5 ppm) of 3, an acute mortality rating ([7]; 25 ppm) of 8 and an acute mortality rating ([7]; 50 ppm) of 8. The acute mortality rating ([7]; 100 ppm) was 9 (91-100 percent mortality), the acute mortality rating (Citrus Rust Mite (CRM); 6.25 ppm) was 1 and the acute mortality rating (Citrus Rust Mite (CRM); 12.5 ppm) was 1. For the same compound, the acute mortality rating (Citrus Rust Mite (CRM); 25 ppm) was 9 (91-100 percent mortality), the acute mortality rating (Citrus Rust Mite (CRM); 50 ppm) was 9 (91-100 percent mortality) and the acute mortality rating (Citrus Rust Mite (CRM); 100 ppm) was 8.
